Experimental findings from publication PMC12501029, “Discovery of a CNS active GSK3 degrader using orthogonally reactive linker screening” (Nature Communications, 2025) are described below.

One assay deals with T1, GSK3α (Homo sapiens, UniProt P49840).
T1 construct: Endogenous GSK3 paralog degradation with compounds 24 and 26 and negative controls 27 and 28 in HEK293 cells; host or cells: HEK293
Briefly: Immunoblot degradation of endogenous GSK3α in HEK293 cells. To be noted: 10 nM, 2 h. In kind it is cell-based. As for the experimental part: (§1) HEK293, HAP1, HAP1 CRBN KO and SH-SY5Y cells were plated in either 6 cm plates or 6-well plates at varying densities (0.5–0.7 × 10^6 cells per plate or wells), and MEF cells were plated in 10 cm plates (1–1.2 × 10^6 cells per plate) depending on experimental set up in respective culturing condition as described above. Stock solutions of compounds were prepared as 10 mM in DMSO (Sigma–Aldrich). Working dilutions were made up fresh in DMSO and culturing media or differentiation media was refreshed prior to any compound treatments. For mode of action studies, cells were pre-treated with inhibitors for 2 h: 1 µM MG132 (Merck, 474790-5 mg), 1 µM MLN4924 (Merck, 5054770001) or 1 µM GSK3 inhibitor (compound 29), before treating with PROTACs for 2, 4 or 24 h as indicated in figure legends. Cells were washed twice with ice-cold PBS (Gibco), harvested in PBS and pelleted, cells were resuspended in RIPA buffer supplemented with complete EDTA-free protease inhibitor cocktail (Roche,11873580001, 1/10 mL) and phosSTOP (Roche, 04906845001, 1 tablet/10 mL) for 20 min lysis on ice then cleared via centrifugation at 16,000 × g, 4 °C for 20 min. […] Following clearance of lysates, protein concentrations were determined by the BCA assay (Fisher Scientific, 23225) or Bradford assay (Bio-rad). […]
On the technique in general: In western blotting, separated proteins are transferred to a membrane and probed.

The target of assay [1] is T2, GSK3β-HiBiT (GSK3β-HiBiT KI HEK293 cells) (Homo sapiens, UniProt P49841).
T2 construct: we generated endogenously tagged GSK3β-HiBiT knock-in (KI) HEK293 cells; endogenous in cells; host or cells: GSK3β-HiBiT knock-in HEK293 cells (CRISPR/Cas9, single-cell clone)
Briefly: HiBiT lytic degradation assay / high-throughput screen, 24 h. To be noted: 24 h treatment; for DC50: pure (resynthesised, HPLC purified) compound. It is filed as cell-based. As for the experimental part: Crude compounds were assumed to be 10 mM concentration in DMSO and after generating libraries directly used in biological tests in degradation screens. Stock solutions were serially diluted into white bottom opaque 384-well plates (Perkin Elmer) using Echo500 (Labcyte) and DMSO was backfilled to maintain same DMSO content in each well for all concentrations. […] HiBiT lytic assay buffer (Promega) prepared according to the manufacturer’s instructions and added onto each well using Multidrop^TM Combi reagent dispenser. Luminescence signal was measured on PheraStar plate reader (BMG) and obtained data normalised to DMSO conditions using Excel and further analysed using GraphPad Prism (v10.1.2) and degradation curves were generated using 4-parameter non-linear regression fit to calculate DC50 and Dmax values. Data points associated with concentrations displaying a hook effect were excluded prior to DC50 and Dmax calculation.

The next assay has as its target T3, GSK3β (Homo sapiens, UniProt P49841).
T3 construct: PROTAC-mediated degradation of untagged, endogenous GSK3β in HEK293 cells; host or cells: HEK293
Briefly: Immunoblot degradation of endogenous GSK3β in HEK293 cells. It is filed as cell-based. To be noted: 10 nM; for endogenous GSK3β degradation: 2 h, HEK293. Here is the method: HEK293, HAP1, HAP1 CRBN KO and SH-SY5Y cells were plated in either 6 cm plates or 6-well plates at varying densities (0.5–0.7 × 10^6 cells per plate or wells), and MEF cells were plated in 10 cm plates (1–1.2 × 10^6 cells per plate) depending on experimental set up in respective culturing condition as described above. Stock solutions of compounds were prepared as 10 mM in DMSO (Sigma–Aldrich). Working dilutions were made up fresh in DMSO and culturing media or differentiation media was refreshed prior to any compound treatments. For mode of action studies, cells were pre-treated with inhibitors for 2 h: 1 µM MG132 (Merck, 474790-5 mg), 1 µM MLN4924 (Merck, 5054770001) or 1 µM GSK3 inhibitor (compound 29), before treating with PROTACs for 2, 4 or 24 h as indicated in figure legends. Cells were washed twice with ice-cold PBS (Gibco), harvested in PBS and pelleted, cells were resuspended in RIPA buffer supplemented with complete EDTA-free protease inhibitor cocktail (Roche,11873580001, 1/10 mL) and phosSTOP (Roche, 04906845001, 1 tablet/10 mL) for 20 min lysis on ice then cleared via centrifugation at 16,000 × g, 4 °C for 20 min. SH-SY5Y cells were lysed in 500 µL ice-cold lysis buffer (25 mM Tris-HCl (pH 7.4), 50 mM NaF, 100 mM NaCl, 1 mM EDTA, 4 mM EGTA, 1% (v/v) Triton-X-100, 0.09% (w/v) sucrose, 10 mM sodium pyrophosphate, 10 mM sodium vanodate, 0.1% (v/v) β-mercaptoethanol, supplemented with complete mini protease inhibitor tablet (Sigma; 1 tablet/ 10 mL buffer)). Lysates were flash frozen, thawed and centrifugated at 16,000 × g, 4 °C for 20 min. Following clearance of lysates, protein concentrations were determined by the BCA assay (Fisher Scientific, 23225) or Bradford assay (Bio-rad). Five to thirty micrograms of protein from lysates were prepared in 4×LDS buffer (Thermo Fisher) and 50 mM dithiothreitol (DTT) denaturated at 95 °C for 5 min. […]

The next assay deals with GSK3. Briefly: Mode of action rescue studies in HEK293 cells (pre-treatment with MG132, MLN4924 or GSK3 inhibitor 29). In kind it is cell-based, human. To be noted: 2 h pre-treatment, 1 µM each inhibitor. As for the experimental part:
as §1

[2] abbreviates: HEK293, crude mixture, stock assumed 10 mM.
[3] abbreviates: HEK293, pure (resynthesised, HPLC purified) compound.

Structures are written as SMILES.

T3 sequence (P49841 whole entry): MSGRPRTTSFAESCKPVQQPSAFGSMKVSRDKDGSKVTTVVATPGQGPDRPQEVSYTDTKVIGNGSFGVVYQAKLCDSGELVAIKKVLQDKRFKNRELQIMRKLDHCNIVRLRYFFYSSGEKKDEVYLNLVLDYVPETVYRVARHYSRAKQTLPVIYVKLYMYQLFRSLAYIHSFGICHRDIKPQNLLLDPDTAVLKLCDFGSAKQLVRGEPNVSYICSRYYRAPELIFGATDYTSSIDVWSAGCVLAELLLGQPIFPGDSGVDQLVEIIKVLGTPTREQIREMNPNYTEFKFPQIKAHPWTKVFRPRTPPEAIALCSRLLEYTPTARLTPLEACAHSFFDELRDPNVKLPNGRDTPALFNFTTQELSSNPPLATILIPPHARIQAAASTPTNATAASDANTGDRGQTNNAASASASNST
T2 sequence (P49841 whole entry): as above
T1 sequence (P49840 whole entry): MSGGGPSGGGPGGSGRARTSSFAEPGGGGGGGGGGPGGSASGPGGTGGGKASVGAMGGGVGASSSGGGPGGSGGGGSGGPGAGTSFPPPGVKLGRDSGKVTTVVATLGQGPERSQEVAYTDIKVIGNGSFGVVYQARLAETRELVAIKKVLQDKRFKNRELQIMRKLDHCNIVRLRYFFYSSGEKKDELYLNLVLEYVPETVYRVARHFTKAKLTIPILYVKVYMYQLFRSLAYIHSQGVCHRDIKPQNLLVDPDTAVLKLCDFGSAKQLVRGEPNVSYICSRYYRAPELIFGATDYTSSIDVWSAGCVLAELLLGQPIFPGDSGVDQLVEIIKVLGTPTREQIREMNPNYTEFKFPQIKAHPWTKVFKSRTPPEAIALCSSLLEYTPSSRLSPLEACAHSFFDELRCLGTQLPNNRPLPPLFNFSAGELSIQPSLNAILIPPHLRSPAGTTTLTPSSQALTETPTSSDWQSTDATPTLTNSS

As to `Cn1nc(N2CCC(=O)NC2=O)c2ccc(CN3CCN(CCCc4cn(-c5ccc(-c6cn7nccc(C(=O)Nc8cnccc8N8CCOCC8)c7n6)cc5)nn4)CC3)cc21` [compound 26], the “endogenous GSK3α degradation” value at GSK3α was “almost complete”. The greatest degradation seen (Dmax) (commonly the greatest extent of degradation seen) stood at 78% in assay [1] (setting [2]) and 80% in assay [1] (setting [3]). Besides, the DC50 entry in assay [1] (listed as KH2 (26)) is recorded as “picomolar to single-digit nanomolar range”. Besides, the “endogenous GSK3β degradation” value at GSK3β is on record as “almost complete”. For the same compound, the “GSK3 degradation in presence of MG132, MLN4924 or GSK3 inhibitor 29” value in the assay with GSK3 is recorded as “rescued”.
As for `Cn1nc(N2CCC(=O)NC2=O)c2ccc(CN3CCN(Cc4ccc(-c5cn(-c6ccc(-c7cn8nccc(C(=O)Nc9cnccc9N9CCOCC9)c8n7)cc6)nn5)nc4)CC3)cc21` [compound 24], on GSK3α, the “endogenous GSK3α degradation” value was “almost complete”. Moreover, the Dmax in assay [1] (setting [2]) amounted to 91%; in assay [1] (setting [3]), 93%. Also, in assay [1] (listed as KH1 (24)), the DC50 entry is recorded as “picomolar to single-digit nanomolar range”. Besides, the “impact on GSK3 levels” value at GSK3β (30 min, HEK cells) is on record as “little impact”. Besides, at GSK3β, the “endogenous GSK3β degradation” value is recorded as “almost complete removal”. The “GSK3 degradation in presence of MG132, MLN4924 or GSK3 inhibitor 29” value in the assay with GSK3 is given as “rescued”.
Regarding `O=C1CCC(NC(=O)c2ccc(CN3CCN(Cc4ccc(-c5cn(-c6ccc(-c7cn8nccc(C(=O)Nc9cnccc9N9CCOCC9)c8n7)cc6)nn5)nc4)CC3)cn2)C(=O)N1` (stereo not drawn) [compound 22], the Dmax was determined as 89% in assay [1] (setting [2]) and 87% in assay [1] (setting [3]).
